Values of other authors as cited in publication PMC8477420 (ChemMedChem, 2020).

Tests used:
[1] = system: OCI-AML-3 cells; settings: monotherapy
[2] = system: MOLM-13 cells; settings: monotherapy
[3] = system: OCI-AML-2 cells; settings: monotherapy
[4] = system: Bcl-2

| SMILES | viability [1] | viability [2] | viability [3] | inhibition of Bcl-2 [4] |
| --- | --- | --- | --- | --- |
| Cc1c(-c2c(-c3ccc(F)o3)sc3ncnc(O[C@H](Cc4ccccc4OCc4ccnn4CC(F)(F)F)C(=O)O)c23)ccc(OCCN2CCN(C)CC2)c1Cl [Compound S63845] | 60–70% | 60–70% | 95% | – |
| COc1ccc(C2=N[C@@H](c3ccc(Cl)cc3)[C@@H](c3ccc(Cl)cc3)N2C(=O)N2CCNC(=O)C2)c(OC(C)C)c1 [Nutlin-3a] | – | – | – | low micromolar inhibition |
| COc1ncc(-c2nc3c(n2C(C)C)[C@H](c2ccc(Cl)cc2)N(c2cc(Cl)cn(C)c2=O)C3=O)c(OC)n1 [HDM201] | no reduction | 80% | 80% | – |
